Test results taken from US9663530B2, “5-oxa-2-azabicyclo[2.2.2]OCTAN-4-yl and 5-oxa-2-azabicyclo[2.2.1]heptan-4-yl derivatives” (Hoffmann-La Roche Inc., priority 2014, dated 2017).

Assays:
[1] = target: mouse TAAR1 (Mus musculus (Mouse), UniProt Q923Y8); test: Radioligand binding assay on mouse TAAR1; conditions: mouse TAAR1 (first value of the cell); membranes of HEK-293 cells stably expressing mouse TAAR1; read-out: Ki (μM) mouse/rat
[2] = target: rat TAAR1 (Rattus norvegicus (Rat), UniProt Q923Y9); test: Radioligand binding assay on rat TAAR1; conditions: rat TAAR1 (second value of the cell); membranes of HEK-293 cells stably expressing rat TAAR1; read-out: Ki (μM) mouse/rat
Summary of the method: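 Membranes from HEK293 cells stably expressing rat TAAR1 were incubated 1 h at 4 °C, in duplicate, with the tritiated oxazol-2-ylamine radioligand added at 3.3×Kd (Kd set per membrane batch by saturation). Buffer was 20 mM HEPES-NaOH pH 7.4, 10 mM MgCl2, 2 mM CaCl2; filtration and scintillation counting followed. […]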

rat TAAR1, sequence (Q923Y9 whole entry): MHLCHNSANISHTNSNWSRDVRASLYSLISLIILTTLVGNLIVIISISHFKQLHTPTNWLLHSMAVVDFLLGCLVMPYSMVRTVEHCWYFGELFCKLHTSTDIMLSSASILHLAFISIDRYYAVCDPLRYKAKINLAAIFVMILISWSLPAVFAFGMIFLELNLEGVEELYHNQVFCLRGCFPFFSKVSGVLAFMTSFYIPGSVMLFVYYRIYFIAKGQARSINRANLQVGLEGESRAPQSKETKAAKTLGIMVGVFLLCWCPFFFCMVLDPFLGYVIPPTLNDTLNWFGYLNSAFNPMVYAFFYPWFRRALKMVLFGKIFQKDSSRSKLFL
mouse TAAR1, sequence (Q923Y8 whole entry): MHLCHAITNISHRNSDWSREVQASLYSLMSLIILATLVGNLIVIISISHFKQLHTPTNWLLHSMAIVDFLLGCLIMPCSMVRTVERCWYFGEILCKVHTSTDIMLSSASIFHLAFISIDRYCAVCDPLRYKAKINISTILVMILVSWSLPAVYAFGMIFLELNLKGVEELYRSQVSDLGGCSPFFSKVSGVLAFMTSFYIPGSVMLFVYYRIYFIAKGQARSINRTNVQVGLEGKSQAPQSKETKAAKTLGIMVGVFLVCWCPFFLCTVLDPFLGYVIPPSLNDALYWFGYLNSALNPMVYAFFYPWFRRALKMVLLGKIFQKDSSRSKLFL

| Compound | Ki [1] [µM] | Ki [2] [µM] |
| --- | --- | --- |
| O=C(Nc1ccc(C[C@]23CN[C@H](CO2)C3)cc1)c1ccc(OCC(F)(F)F)nc1 [Example 27, N-[4-[[(1 S,4S)-5-Oxa-2-azabicyclo[2.2.1]heptan-4-yl]methyl]phenyl]-6-(2,2,2-trifluoroethoxy)pyridine-3-carboxamide] | 0.0552 | 0.013 |
| FC(F)(F)c1nccc(Nc2ccc([C@@]34CN[C@@H](CO3)C4)cc2)n1 [Example 56, N-[4-[(1R,4S)-5-Oxa-2-azabicyclo[2.2.1]heptan-4-yl]phenyl]-2-(trifluoromethyl)pyrimidin-4-amine] | 0.0393 | 2.41 |
| O=C(Nc1ccc(C[C@@]23CN[C@@H](CO2)C3)cc1)Nc1ccccc1Cl [Example 43, 1-(2-Chlorophenyl)-3-[4-[[(1R,4R)-5-oxa-2-azabicyclo[2.2.1]heptan-4-yl]methyl]phenyl]urea] | 0.0124 | 0.202 |
| FC(F)(F)c1cnc(Nc2ccc(C[C@]34CN[C@H](CO3)C4)cc2)nc1 [Example 33, N-[4-[[(1S,4S)-5-Oxa-2-azabicyclo[2.2.1]heptan-4-yl]methyl]phenyl]-5-(trifluoromethyl)pyrimidin-2-amine] | 5.8 | 0.881 |
| O=C(Nc1ccc(C23CCC(CO2)NC3)cc1)c1cnc(C2CC2)nc1 (racemic) [Example 14, (RS)-2-Cyclopropyl-N-[4-(5-oxa-2-azabicyclo[2.2.2]octan-4-yl)phenyl]pyrimidine-5-carboxamide] | 0.136 | > 10 |
| O=C(Nc1ccc(C[C@]23CN[C@H](CO2)C3)cc1)Nc1cccc(C(F)(F)F)c1 [Example 10, 1-[4-[[(1S,4S)-5-Oxa-2-azabicyclo[2.2.1]heptan-4-yl]methyl]phenyl]-3-[3-(trifluoromethyl)phenyl]urea] | 0.365 | 0.0209 |
| CCCc1n[nH]c(C(=O)Nc2ccc(C[C@]34CN[C@H](CO3)C4)cc2)c1Cl [Example 16, 4-Chloro-N-[4-[[(1 S,4S)-5-oxa-2-azabicyclo[2.2.1]heptan-4-yl]methyl]phenyl]-3-propyl-1H-pyrazole-5-carboxamide] | 0.476 | 0.277 |
| CCCc1n[nH]c(C(=O)Nc2ccc(C[C@@]34CN[C@@H](CO3)C4)cc2)c1Cl [Example 41, 4-Chloro-N-[4-[[(1R,4R)-5-oxa-2-azabicyclo[2.2.1]heptan-4-yl]methyl]phenyl]-3-propyl-1H-pyrazole-5-carboxamide] | 0.0183 | 0.066 |

Other lines, results leading:

| Ki [1] [µM] | Ki [2] [µM] | Compound |
| --- | --- | --- |
| 1.35 | 0.0822 | O=C(Nc1ccc(C[C@]23CN[C@H](CO2)C3)cc1)Nc1cccc(Cl)c1 [Example 2, 1-(3-Chlorophenyl)-3-[4-[[(1S,4S)-5-oxa-2-azabicyclo[2.2.1]heptan-4-yl]methyl]phenyl]urea] |
| 0.0119 | 0.0681 | O=C(Nc1ccc(C23CCC(CO2)NC3)cc1)Nc1cccc(Cl)c1 (racemic) [Example 68, (RS)-1-(3-Chlorophenyl)-3-[4-(5-oxa-2-azabicyclo[2.2.2]octan-4-yl)phenyl]urea] |
| 0.005 | 0.0465 | O=C(Nc1ccc(Cl)cc1)Nc1ccc(C23CCC(CO2)NC3)cc1 (racemic) [Example 66, (RS)-1-(4-Chlorophenyl)-3-[4-(5-oxa-2-azabicyclo[2.2.2]octan-4-yl)phenyl]urea] |
| 0.0036 | 0.964 | O=C(Nc1ccc([C@@]23CN[C@@H](CO2)C3)cc1)c1cccc(Cl)c1 [Example 55, 3-Chloro-N-[4-[(1R,4S)-5-oxa-2-azabicyclo[2.2.1]heptan-4-yl]phenyl]benzamide] |
